Assay results as given in patent US7381537B2, “Use of inhibitors of glutaminyl cyclases for treatment and prevention of disease” (Probiodrug AG, priority 2003, dated 2008).
“Also recorded” adds a separate entry of the source. Like-named read-outs stand apart in the source and are kept apart here. Bridge positions count the residues as written; N and C are the ends. Square brackets hold non-standard residues; d marks the D form. Ends that are not written are not given here. Peptide text beside a SMILES is read from it.

Key:
QC [1] = biological target: T1, QC (Homo sapiens, UniProt Q16769); assay: Inhibitor assay: Ki determination in the human QC catalyzed reaction; assay type: biochemical; parameters: The cDNA of the mature QC starting with codon 38 was fused in frame with the plasmid encoded 6×histidine tag; 6xHis; made in house; host or cells: Pichia pastoris X33 (pPICZαB); also E. coli M15 (pQE-31); conditions: text of example 7
Text: (§1) Excitation/emission wavelengths were 380/460 nm.

QC [2] = biological target: T1, QC; assay: Inhibition and inactivation of human QC by chelators; assay type: biochemical; parameters: The cDNA of the mature QC starting with codon 38 was fused in frame with the plasmid encoded 6×histidine tag; 6xHis; made in house; host or cells: Pichia pastoris X33 (pPICZαB); also E. coli M15 (pQE-31); conditions: for inhibition of human QC catalyzed substrate cyclization: competitive and time-dependent for the chelators
mammalian QC = conditions: Busby et al. 1987; cited from earlier work
QC [3] = biological target: T1, QC; assay: Continuous spectrophotometric assay of QC substrate conversion (glutamate dehydrogenase coupled), human QC;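 also: initial rates read in microplates at 30 °C, with enzyme activity quantified against an ammonia calibration curve recorded under the same assay conditions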
Procedure: The initial velocities were evaluated and the enzymatic activity was determined from a standard curve of ammonia under assay conditions. All samples were measured at 30° C., using either the [sequence]luor Plus or the Sunrise (both from TECAN) reader for microplates. Kinetic data was evaluated using GraFit software.

QC [4] = biological target: T1, QC; assay: Qualitative substrate conversion by MALDI-TOF mass spectrometry, human QC; assay type: biochemical; parameters: The cDNA of the mature QC starting with codon 38 was fused in frame with the plasmid encoded 6×histidine tag; 6xHis; made in house; host or cells: Pichia pastoris X33 (pPICZαB); also E. coli M15 (pQE-31)
Procedure: Matrix-assisted laser desorption/ionization mass spectrometry was carried out using the Hewlett-Packard G2025 LD-TOF System with a linear time of flight analyzer. The instrument was equipped with a 337 nm nitrogen laser, a potential acceleration source (5 kV) and a 1.0 m flight tube. Detector operation was in the positive-ion mode and signals were recorded and filtered using LeCroy 9350M digital storage oscilloscope linked to a personal computer. Samples (5 μl) were mixed with equal volumes of the matrix solution. For matrix solution we used DHAP/DAHC, prepared by solving 30 mg 2′,6′-dihydroxyacetophenone (Aldrich) and 44 mg diammonium hydrogen citrate (Fluka) in 1 ml acetonitrile/0.1% TFA in water (1/1, v/v). […]
In order to further investigate the specificity and selectivity of the QCs, peptides were synthesized comprising either a modified N-terminal glutaminyl residue or a modified amino acid in the second position. […] Due to the cyclization of the glutaminyl residue or its analog, respectively, a mass difference of the substrate and the product of catalysis is detected. In cases of ammonia liberation of one mole per mole of substrate, the conversion was also analyzed quantitatively using the spectrophotometric assay.

QC [5] = biological target: T1, QC; assay: Fluorometric assay with pyroglutamyl aminopeptidase as auxiliary enzyme, human QC; assay type: biochemical; parameters: The cDNA of the mature QC starting with codon 38 was fused in frame with the plasmid encoded 6×histidine tag; 6xHis; made in house; host or cells: Pichia pastoris X33 (pPICZαB); also E. coli M15 (pQE-31); conditions: H-Gln-AMC as substrate
Text: Excitation/emission wavelengths were 320/410 nm.
as §1
H-Glu(OMe)-βNA and H-Glu-βNA.

[6] = Procedure: H-Glu(OMe)-βNA and H-Glu-βNA. […] These fluorogenic substrates were analyzed fluorometrically, utilizing pyroglutamyl aminopeptidase as auxiliary enzyme.
DP IV and QC = assay: Consecutive catalysis of DP IV and QC, crude porcine pituitary homogenate with added DPIV, MALDI-TOF; assay type: biochemical
Procedure: (§2) Matrix-assisted laser desorption/ionization mass spectrometry was carried out using the Hewlett-Packard G2025 LD-TOF System with a linear time of flight analyzer. […] Samples (5 μl) were mixed with equal volumes of the matrix solution. For matrix solution we used DHAP/DAHC, prepared by solving 30 mg 2′,6′-dihydroxyacetophenone (Aldrich) and 44 mg diammonium hydrogen citrate (Fluka) in 1 ml acetonitrile/0.1% TFA in water (1/1, v/v). A small volume (=1 μl) of the matrix-analyte-mixture was transferred to a probe tip and immediately evaporated in a vacuum chamber (Hewlett-Packard G2024A sample prep accessory) to ensure rapid and homogeneous sample crystallization.

[7] = biological target: T2, purified DP IV (porcine kidney) (Sus scrofa, UniProt P22411); assay: Cleavage of [Gln^3]Aβ1-11a by DP IV, MALDI-TOF; assay type: biochemical
T2 construct: purified DP IV (porcine kidney); from tissue; host or cells: porcine kidney
Procedure: as §2

QC [8] = biological target: T1, QC; assay: Long-term Glu^1-cyclization of Aβ-derived peptides by recombinant human QC, MALDI-TOF; assay type: biochemical; parameters: The cDNA of the mature QC starting with codon 38 was fused in frame with the plasmid encoded 6×histidine tag; 6xHis; made in house; host or cells: Pichia pastoris X33 (pPICZαB); also E. coli M15 (pQE-31); conditions: for suppression of [pGlu^3]Aβ3-11a / [pGlu^3]Aβ3-21a formation from Aβ3-11a / Aβ3-21a: 5 mM benzimidazole, pH 5.2 and 6.5; for turnover of glutamate-containing peptide by QC: pH 5.2 and 6.5, respectively
Procedure: For long-term testing of Glu^1-cyclization, Aβ-derived peptides were incubated in 100 μl 0.1 M sodium acetate buffer, pH 5.2 or 0.1 M Bis-Tris buffer, pH 6.5 at 30° C. Peptides were applied in 0.5 mM [Aβ3-11a] or 0.15 mM [Aβ3-21a] concentrations, and 0.2 U QC was added all 24 hours.
In case of Aβ3-21a, the assays contained 1% DMSO. At different times, samples were removed from the assay tube, peptides extracted using ZipTips (Millipore) according to the manufacturer's recommendations, mixed with matrix solution (1:1 v/v) and subsequently the mass spectra recorded. Negative controls did either contain no QC or heat deactivated enzyme.
The QC-catalyzed formation of [pGlu^3]Aβ3-11a and [pGlu^3]Aβ3-21a was investigated at pH 5.2 and 6.5, respectively. If the QC-inhibitor benzimidazole was added to the solution before starting the assay by addition of QC, substrate conversion resulting in [pGlu^3]Aβ3-11a or [pGlu^3]Aβ3-21a was suppressed (FIGS. 15E and F). If QC was boiled before addition, formation of the pGlu-peptides was negligible (FIGS. 15A and B).

QC [9] = biological target: T1, QC; assay: LC/MS-analysis of pyroglutamate formation by QC; assay type: biochemical
[10] = Table 6, influence of substrate length
[11] = Table 1, physiological substrates
[12] = peptides comprising modified amino acids

T1 sequence (Q16769 29-361): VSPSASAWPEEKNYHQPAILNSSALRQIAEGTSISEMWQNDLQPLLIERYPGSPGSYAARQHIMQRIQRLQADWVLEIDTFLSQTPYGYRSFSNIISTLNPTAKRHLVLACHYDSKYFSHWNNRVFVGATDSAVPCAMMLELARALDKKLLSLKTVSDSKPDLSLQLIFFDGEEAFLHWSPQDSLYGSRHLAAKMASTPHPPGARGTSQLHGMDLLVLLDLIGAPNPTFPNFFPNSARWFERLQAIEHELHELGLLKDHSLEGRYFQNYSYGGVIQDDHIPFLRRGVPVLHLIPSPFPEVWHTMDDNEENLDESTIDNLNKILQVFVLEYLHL
T2 sequence (P22411 whole entry): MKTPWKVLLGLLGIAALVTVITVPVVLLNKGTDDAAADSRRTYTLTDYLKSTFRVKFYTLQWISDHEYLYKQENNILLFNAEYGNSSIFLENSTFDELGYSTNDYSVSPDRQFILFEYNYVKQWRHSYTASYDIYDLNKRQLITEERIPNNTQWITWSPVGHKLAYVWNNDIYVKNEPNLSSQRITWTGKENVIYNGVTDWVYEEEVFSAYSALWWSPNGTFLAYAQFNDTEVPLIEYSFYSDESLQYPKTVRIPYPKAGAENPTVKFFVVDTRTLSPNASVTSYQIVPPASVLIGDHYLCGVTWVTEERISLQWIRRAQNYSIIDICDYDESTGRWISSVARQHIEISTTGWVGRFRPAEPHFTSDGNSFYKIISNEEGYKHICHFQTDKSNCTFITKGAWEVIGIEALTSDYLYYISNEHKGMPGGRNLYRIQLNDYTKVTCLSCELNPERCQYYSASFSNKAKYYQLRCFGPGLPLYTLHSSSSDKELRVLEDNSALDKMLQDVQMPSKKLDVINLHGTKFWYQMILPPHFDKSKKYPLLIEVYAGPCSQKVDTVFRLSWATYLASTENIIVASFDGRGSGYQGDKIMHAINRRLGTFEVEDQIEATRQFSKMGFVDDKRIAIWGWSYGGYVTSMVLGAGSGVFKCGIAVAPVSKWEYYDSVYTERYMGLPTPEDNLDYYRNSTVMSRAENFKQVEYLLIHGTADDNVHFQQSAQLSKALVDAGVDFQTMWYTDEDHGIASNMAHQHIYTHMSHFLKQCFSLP

Cn1cnc(CCN)c1 [1-methyl-4-(β-aminoethyl)-imidazole]
inhibition of human QC, in words (QC [1]): complete loss of inhibitory activity

Oc1cccc2cccnc12 [8-hydroxyquinoline]
inhibition of human QC catalyzed substrate cyclization (QC [2]): abolished

O=C(O)CN(CCN(CC(=O)O)CC(=O)O)CC(=O)O [EDTA]
inhibition of a mammalian QC (mammalian QC): did not inhibit | inhibition of human QC catalyzed substrate cyclization (QC [2]): did not show remarkable inhibition

Cc1cc(=O)oc2cc(NC(=O)[C@@H](N)CCC(N)=O)ccc12 [H-Gln-AMC]
kcat/KM (QC [3]; Table 5, n.r. = not reactive): 98000 ± 2000 M⁻¹ s⁻¹

C[C@H](NC(=O)[C@H](C)NC(=O)[C@@H](N)CCC(N)=O)C(N)=O [H-Gln-Ala-Ala-NH2] (H-Gln-Ala-Ala-NH2)
Km (QC [3]; [10]): 87 ± 3 µM

C[C@H](NC(=O)[C@@H](N)CCC(N)=O)C(N)=O [H-Gln-Ala-NH2] (H-Gln-Ala-NH2)
Km (QC [3]; [10]): 155 ± 9 µM

CC(C)C[C@H](NC(=O)[C@H](CCCNC(=N)N)NC(=O)[C@H](CCCCNC(=O)[C@@H](N)CCC(N)=O)NC(=O)[C@@H](N)CCC(N)=O)C(=O)N[C@@H](C)C(N)=O [H-Gln-Lys(Gln)-Arg-Leu-Ala-NH2] (H-QK(Gln)RLA-NH2)
substrate conversion (cyclization) by human QC (QC [4]): converted

NC(=O)CC[C@H](N)C(=O)O [H-Gln-OH]
kcat/KM (QC [3]; Table 5, n.r. = not reactive): n.r.

COC(=O)CC[C@H](N)C(=O)N[C@@H](Cc1ccccc1)C(=O)N[C@@H](CCCCN)C(=O)N[C@@H](CCCNC(=N)N)C(=O)N[C@@H](CC(C)C)C(=O)N[C@@H](C)C(N)=O [H-Glu(OMe)-Phe-Lys-Arg-Leu-Ala-NH2] (H-E(OMe)FKRLA-NH2)
inhibition of human QC by the peptide (QC [5]): not inhibited

COC(=O)CC[C@H](N)C(=O)Nc1ccc2ccccc2c1 [H-Glu(OMe)-βNA, H-Glu(OMe)-β-naphthylamide]
stability in Tris and Tricine buffers [6]: remarkable instability

CC(C)[C@H](N)C(=O)N1CCCC1 [Val-Pyrr, Val-Pyrrolidide]
[pGlu^3]Aβ3-11a formation from [Gln^3]Aβ1-11a in presence of catalytically active DP IV and QC (DP IV and QC): not formed; also recorded: reduction | prevention of DP IV-catalysed cleavage of [Gln^3]Aβ1-11a [7]: completely prevented | prevention of DP IV-catalysed cleavage of [Gln^3]Aβ1-11a ([7]; listed as Val-Pyrrolidide): prevention

NC(=O)CC[C@H](N)C(=O)N[C@@H](CCC(=O)O)C(=O)N1CCC[C@H]1C(N)=O [[Gln^1]-FPP] (H-Gln-Glu-Pro-NH2)
Km (QC [3]; [11]): 87 ± 2 µM

NC(=O)CC[C@H](N)C(=O)N[C@@H](Cc1c[nH]cn1)C(=O)N1CCC[C@H]1C(N)=O [[Gln^1]-TRH] (H-Gln-His-Pro-NH2)
Km (QC [3]; [11]): 90 ± 4 µM

c1ccc2[nH]cnc2c1 [benzimidazole]
suppression of [pGlu^3]Aβ3-11a / [pGlu^3]Aβ3-21a formation from Aβ3-11a / Aβ3-21a (QC [8]): suppressed | suppression of [pGlu^3]Aβ3-11a / [pGlu^3]Aβ3-21a formation from Aβ3-11a / Aβ3-21a (QC [8]; listed as Benzimidazole): suppressing

O=C(O)c1cccc(C(=O)O)n1 [dipicolinic acid]
inhibition of human QC catalyzed substrate cyclization (QC [2]): abolished | inactivation of human QC after extensive dialysis (QC [2]; dialysis against 5 mM): almost completely inactivated

DAQFRHDSGYE-NH2 [[Gln^3]Aβ1-11a]
cleavage by DPIV under formation of [Gln^3]Aβ3-11a [7]: cleaving

EFRHDSGYE-NH2 [Aβ3-11a]
turnover of glutamate-containing peptide by QC (QC [8]): serve as QC-substrates

EFRHDSGYEVHHQKLVFFA-NH2 [Aβ3-21a]
turnover of glutamate-containing peptide by QC (QC [8]): serve as QC-substrates

H-EFKRLA-NH2 [H-Glu-Phe-Lys-Arg-Leu-Ala-NH2]
inhibition of human QC by the peptide (QC [5]): not inhibited

H-Gln(NMe)-Phe-Lys-Ala-Glu-NH2 (H-[Gln(NMe)]FKAE-NH2; not fully specified; printed as H-Gln(NMe)-Phe-Lys-Ala-Glu-NH2)
substrate conversion (cyclization) by human QC (QC [4]): No substrate conversion | inhibition of human QC by the peptide (QC [5]): not detected

H-Gln-cyclo(Nε-Lys-Arg-Pro-Ala-Gly-Phe) (H-QKRPAGF; lactam 2-C; SMILES C[C@@H]1NC(=O)[C@@H]2CCCN2C(=O)[C@H](CCCNC(=N)N)NC(=O)[C@@H](NC(=O)[C@@H](N)CCC(N)=O)CCCCNC(=O)[C@H](Cc2ccccc2)NC(=O)CNC1=O)
kcat (turnover number) (QC [3]; [12]): 22.8 ± 10.6 s⁻¹ | kcat/KM-value (QC [3]; [12]): 95000 ± 3000 M⁻¹ s⁻¹

[Gln^1]-GnRH: GnRH with N-terminal glutamine: QHWSYGL RP(G) amide
kcat/KM (QC [3]; [11]): 1.3057e+06 ± 53200 M⁻¹ s⁻¹

[Gln^3]-glucagon(3-29): glucagon fragment 3-29 with N-terminal glutamine
second order rate constant (QC [3]; in presence of 1% DMSO): 526000 M⁻¹ s⁻¹ | kcat/KM (QC [3]; recombinant human QC, buffer solution containing 1% DMSO): 526000 ± 17000 M⁻¹ s⁻¹ | formation of N-terminal pyroglutamate by QC (QC [9]): catalyzed by QC

[Gln^5]-substance P(5-11): substance P fragment 5-11 with N-terminal glutamine (QQFFGLM; ends and bridges not checked)
formation of N-terminal pyroglutamate by QC (QC [9]): transformed by QC

reduced 6-methylpterin
inhibition of a mammalian QC (mammalian QC): Inhibition
